Assay results published in PubChem BioAssay (NCI).
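Exposure lasted 48 hours, with cells grown in 96-well plates and compounds tested at five concentrations. GI50 marks 50% less growth. The concentration for full growth arrest is given as TGI.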

Legend:
Assay in all cases: NCI-60 cell line screen, 48 h
786-0 renal = system: 786-0 renal
A549 NSCLC = system: A549 NSCLC
ACHN renal = system: ACHN renal
BT-549 breast = system: BT-549 breast
CAKI-1 renal = system: CAKI-1 renal
COLO 205 colon = system: COLO 205 colon
DU-145 prostate = system: DU-145 prostate
EKVX NSCLC = system: EKVX NSCLC
HCC-2998 colon = system: HCC-2998 colon
HCT-116 colon = system: HCT-116 colon
HCT-15 colon = system: HCT-15 colon
HL-60(TB) leukemia = system: HL-60(TB) leukemia
HOP-62 NSCLC = system: HOP-62 NSCLC
HOP-92 NSCLC = system: HOP-92 NSCLC
HS 578T breast = system: HS 578T breast
IGROV1 ovarian = system: IGROV1 ovarian
K-562 leukemia = system: K-562 leukemia
KM12 colon = system: KM12 colon
LOX IMVI melanoma = system: LOX IMVI melanoma
M14 melanoma = system: M14 melanoma
MCF7 breast = system: MCF7 breast
MDA-MB-231 breast = system: MDA-MB-231 breast
MDA-MB-435 = system: MDA-MB-435
NCI-H23 lung = system: NCI-H23 lung
NCI-H460 lung = system: NCI-H460 lung
NCI-H522 lung = system: NCI-H522 lung
NCI/ADR-RES ovarian = system: NCI/ADR-RES ovarian
OVCAR-3 ovarian = system: OVCAR-3 ovarian
OVCAR-4 ovarian = system: OVCAR-4 ovarian
OVCAR-5 ovarian = system: OVCAR-5 ovarian
OVCAR-8 ovarian = system: OVCAR-8 ovarian
PC-3 prostate = system: PC-3 prostate
RPMI-8226 leukemia = system: RPMI-8226 leukemia
RXF 393 renal = system: RXF 393 renal
SF-268 CNS = system: SF-268 CNS
SF-295 CNS = system: SF-295 CNS
SF-539 CNS = system: SF-539 CNS
SK-MEL-2 melanoma = system: SK-MEL-2 melanoma
SK-MEL-28 melanoma = system: SK-MEL-28 melanoma
SK-MEL-5 melanoma = system: SK-MEL-5 melanoma
SN12C renal = system: SN12C renal
SNB-19 CNS = system: SNB-19 CNS
SR leukemia = system: SR leukemia
SW-620 colon = system: SW-620 colon
T-47D breast = system: T-47D breast
TK-10 renal = system: TK-10 renal
U251 CNS = system: U251 CNS
UACC-257 melanoma = system: UACC-257 melanoma
UACC-62 melanoma = system: UACC-62 melanoma
UO-31 renal = system: UO-31 renal
CCRF-CEM leukemia = system: CCRF-CEM leukemia
HT29 colon = system: HT29 colon
MALME-3M melanoma = system: MALME-3M melanoma
MOLT-4 leukemia = system: MOLT-4 leukemia
SK-OV-3 ovarian = system: SK-OV-3 ovarian
SNB-75 CNS = system: SNB-75 CNS

CCC(CC)c1nc(Nc2cccc(OC)c2)c2ccccc2n1
GI50 (786-0 renal): 11 µM | TGI (786-0 renal): 18.2 µM | GI50 (A549 NSCLC): 7.11 µM | TGI (A549 NSCLC): 13.6 µM | GI50 (ACHN renal): 7.71 µM | TGI (ACHN renal): 14.4 µM | GI50 (BT-549 breast): 7.19 µM | TGI (BT-549 breast): 13.7 µM | GI50 (CAKI-1 renal): 5.9 µM | TGI (CAKI-1 renal): 12 µM | GI50 (COLO 205 colon): 11 µM | TGI (COLO 205 colon): 18.3 µM | GI50 (DU-145 prostate): 6.48 µM | TGI (DU-145 prostate): 12.8 µM | GI50 (EKVX NSCLC): 8.05 µM | TGI (EKVX NSCLC): 14.8 µM | GI50 (HCC-2998 colon): 7.68 µM | TGI (HCC-2998 colon): 14.3 µM | GI50 (HCT-116 colon): 8.31 µM | TGI (HCT-116 colon): 15.1 µM | GI50 (HCT-15 colon): 7.45 µM | TGI (HCT-15 colon): 14.1 µM | GI50 (HL-60(TB) leukemia): 12 µM | TGI (HL-60(TB) leukemia): > 50 µM | GI50 (HOP-62 NSCLC): 8.06 µM | TGI (HOP-62 NSCLC): 14.8 µM | GI50 (HOP-92 NSCLC): 2.86 µM | TGI (HOP-92 NSCLC): 9.98 µM | GI50 (HS 578T breast): 7.71 µM | TGI (HS 578T breast): 15.4 µM | GI50 (IGROV1 ovarian): 10.2 µM | TGI (IGROV1 ovarian): 19.2 µM | GI50 (K-562 leukemia): 4.3 µM | TGI (K-562 leukemia): > 50 µM | GI50 (KM12 colon): 6.11 µM | TGI (KM12 colon): 12.3 µM | GI50 (LOX IMVI melanoma): 6.43 µM | TGI (LOX IMVI melanoma): 12.7 µM | GI50 (M14 melanoma): 11.3 µM | TGI (M14 melanoma): 18.5 µM | GI50 (MCF7 breast): 10.6 µM | TGI (MCF7 breast): > 50 µM | GI50 (MDA-MB-231 breast): 6.57 µM | TGI (MDA-MB-231 breast): 12.9 µM | GI50 (MDA-MB-435): 6.92 µM | TGI (MDA-MB-435): 13.4 µM | GI50 (NCI-H23 lung): 8.27 µM | TGI (NCI-H23 lung): 15.1 µM | GI50 (NCI-H460 lung): 12.9 µM | TGI (NCI-H460 lung): 38.4 µM | GI50 (NCI-H522 lung): 7.51 µM | TGI (NCI-H522 lung): 15.3 µM | GI50 (NCI/ADR-RES ovarian): 10.3 µM | TGI (NCI/ADR-RES ovarian): 17.4 µM | GI50 (OVCAR-3 ovarian): 5.9 µM | TGI (OVCAR-3 ovarian): 12 µM | GI50 (OVCAR-4 ovarian): 6.95 µM | TGI (OVCAR-4 ovarian): 13.6 µM | GI50 (OVCAR-5 ovarian): 9.68 µM | TGI (OVCAR-5 ovarian): 16.7 µM | GI50 (OVCAR-8 ovarian): 8.85 µM | TGI (OVCAR-8 ovarian): 17.9 µM | GI50 (PC-3 prostate): 6.86 µM | TGI (PC-3 prostate): 13.3 µM | GI50 (RPMI-8226 leukemia): 5.41 µM | TGI (RPMI-8226 leukemia): 11.3 µM | GI50 (RXF 393 renal): 7.29 µM | TGI (RXF 393 renal): 14.7 µM | GI50 (SF-268 CNS): 11.5 µM | TGI (SF-268 CNS): 29.5 µM | GI50 (SF-295 CNS): 6.55 µM | TGI (SF-295 CNS): 12.9 µM | GI50 (SF-539 CNS): 8.29 µM | TGI (SF-539 CNS): 15.1 µM | GI50 (SK-MEL-2 melanoma): 7.11 µM | TGI (SK-MEL-2 melanoma): 15.2 µM | GI50 (SK-MEL-28 melanoma): 6.72 µM | TGI (SK-MEL-28 melanoma): 13.1 µM | GI50 (SK-MEL-5 melanoma): 6.07 µM | TGI (SK-MEL-5 melanoma): 12.3 µM | GI50 (SN12C renal): 7.35 µM | TGI (SN12C renal): 13.9 µM | GI50 (SNB-19 CNS): 6.86 µM | TGI (SNB-19 CNS): 13.3 µM | GI50 (SR leukemia): 9.81 µM | TGI (SR leukemia): 24.2 µM | GI50 (SW-620 colon): 7.47 µM | TGI (SW-620 colon): 14.1 µM | GI50 (T-47D breast): 0.005 µM | TGI (T-47D breast): 0.234 µM | GI50 (TK-10 renal): 10.7 µM | TGI (TK-10 renal): 17.9 µM | GI50 (U251 CNS): 7.98 µM | TGI (U251 CNS): 14.7 µM | GI50 (UACC-257 melanoma): 8.06 µM | TGI (UACC-257 melanoma): 14.8 µM | GI50 (UACC-62 melanoma): 7.28 µM | TGI (UACC-62 melanoma): 13.8 µM | GI50 (UO-31 renal): 6.95 µM | TGI (UO-31 renal): 13.4 µM

[N-]=[N+]=Nc1c(Cc2ccccc2)c(=O)oc2ccccc12
TGI (786-0 renal): > 100 µM | TGI (A549 NSCLC): > 100 µM | TGI (ACHN renal): > 100 µM | TGI (BT-549 breast): 46.9 µM | TGI (CAKI-1 renal): > 100 µM | TGI (CCRF-CEM leukemia): 45.8 µM | TGI (COLO 205 colon): 98.4 µM | TGI (DU-145 prostate): > 100 µM | TGI (HCC-2998 colon): 62.1 µM | TGI (HCT-15 colon): > 100 µM | TGI (HL-60(TB) leukemia): > 100 µM | TGI (HOP-62 NSCLC): 50.3 µM | TGI (HS 578T breast): 61.3 µM | TGI (HT29 colon): 54.5 µM | TGI (IGROV1 ovarian): 70.6 µM | TGI (K-562 leukemia): 86.9 µM | TGI (LOX IMVI melanoma): 28.4 µM | TGI (M14 melanoma): 62.3 µM | TGI (MALME-3M melanoma): > 100 µM | TGI (MCF7 breast): 70.9 µM | TGI (MDA-MB-231 breast): > 100 µM | TGI (MDA-MB-435): 58.5 µM | TGI (MOLT-4 leukemia): 26.2 µM | TGI (NCI-H23 lung): 78.1 µM | TGI (NCI-H460 lung): 57.3 µM | TGI (NCI/ADR-RES ovarian): > 100 µM | TGI (OVCAR-3 ovarian): > 100 µM | TGI (OVCAR-4 ovarian): > 100 µM | TGI (OVCAR-5 ovarian): > 100 µM | TGI (PC-3 prostate): > 100 µM | TGI (RPMI-8226 leukemia): > 100 µM | TGI (RXF 393 renal): 38 µM | TGI (SF-268 CNS): 62.1 µM | TGI (SF-295 CNS): > 100 µM | TGI (SK-MEL-2 melanoma): 78.8 µM | TGI (SK-MEL-5 melanoma): 20.2 µM | TGI (SK-OV-3 ovarian): > 100 µM | TGI (SNB-19 CNS): > 100 µM | TGI (SNB-75 CNS): > 100 µM | TGI (SR leukemia): > 100 µM | TGI (SW-620 colon): 39.7 µM | TGI (T-47D breast): > 100 µM | TGI (TK-10 renal): 60.4 µM | TGI (U251 CNS): 69.7 µM | TGI (UACC-257 melanoma): > 100 µM | TGI (UO-31 renal): > 100 µM
